System: MV-4-11 cells
Test: Gene expression microarray analysis (Affymetrix PrimeView) and GSEA
Type: cell-based, human
Design: RFU PODN (11730768_x_at) / Fold change /veh PODN (11730768_x_at) / RFU LINC00158 (11744669_a_at) / Fold change /veh LINC00158 (11744669_a_at) / RFU DUSP10 (11751237_a_at) / Fold change /veh DUSP10 (11751237_a_at) / RFU ID3 (11757404_x_at) / Fold change /veh ID3 (11757404_x_at) / RFU PLEKHG5 (11737974_s_at) / Fold change /veh PLEKHG5 (11737974_s_at) / RFU LRRC4B (11730491_at) / Fold change /veh LRRC4B (11730491_at) / RFU GIMAP4 (11747438_a_at) / Fold change /veh GIMAP4 (11747438_a_at) / RFU KRT8 (11758183_x_at) / Fold change /veh KRT8 (11758183_x_at) / RFU CNN1 (11734310_a_at) / Fold change /veh CNN1 (11734310_a_at) / RFU VPS37D (11726825_at) / Fold change /veh VPS37D (11726825_at) / RFU C10orf10 (11716522_x_at) / Fold change /veh C10orf10 (11716522_x_at) / RFU KIR2DL2 /// KIR2DL4 /// KIR2DL5A /// KIR2DL5B /// KIR2DS1 /// KIR2DS2 /// KIR2DS3 /// KIR2DS4 /// KIR3DL3 /// KIR3DL3 /// KIR3DS1 (11738374_at) / Fold change /veh KIR2DL2 /// KIR2DL4 /// KIR2DL5A /// KIR2DL5B /// KIR2DS1 /// KIR2DS2 /// KIR2DS3 /// KIR2DS4 /// KIR3DL3 /// KIR3DL3 /// KIR3DS1 (11738374_at) / RFU C1QL1 (11718748_at) / Fold change /veh C1QL1 (11718748_at) / RFU TMPRSS4 (11747572_a_at) / Fold change /veh TMPRSS4 (11747572_a_at) / RFU HAMP (11756126_x_at) / Fold change /veh HAMP (11756126_x_at) / RFU RNFT2 (11725882_a_at) / Fold change /veh RNFT2 (11725882_a_at) / RFU NR4A2 (11747474_a_at) / Fold change /veh NR4A2 (11747474_a_at) / RFU ABCC12 (11746883_a_at) / Fold change /veh ABCC12 (11746883_a_at) / RFU TMEM136 (11760407_x_at) / Fold change /veh TMEM136 (11760407_x_at) / RFU CLDN22 /// WWC2 (11732394_at) / Fold change /veh CLDN22 /// WWC2 (11732394_at) / RFU HLA-DPB1 (11760878_x_at) / Fold change /veh HLA-DPB1 (11760878_x_at) / RFU SPINT1 (11716480_a_at) / Fold change /veh SPINT1 (11716480_a_at) / RFU GAP43 (11754022_s_at) / Fold change /veh GAP43 (11754022_s_at) / RFU A4GNT (11735810_at) / Fold change /veh A4GNT (11735810_at) / RFU PRB3 (11715151_x_at) / Fold change /veh PRB3 (11715151_x_at) / RFU TUBB4B (11761932_at) / Fold change /veh TUBB4B (11761932_at) / RFU CAPN14 (11732068_a_at) / Fold change /veh CAPN14 (11732068_a_at) / RFU TMCC2 (11721928_a_at) / Fold change /veh TMCC2 (11721928_a_at) / RFU IRGQ (11745062_a_at) / Fold change /veh IRGQ (11745062_a_at) / RFU FAM174B (11720279_a_at) / Fold change /veh FAM174B (11720279_a_at) / RFU TMPRSS4 (11748680_a_at) / Fold change /veh TMPRSS4 (11748680_a_at) / RFU FAM212B (11763350_a_at) / Fold change /veh FAM212B (11763350_a_at) / RFU PLEKHG5 (11743358_a_at) / Fold change /veh PLEKHG5 (11743358_a_at) / RFU ZSCAN30 (11745921_a_at) / Fold change /veh ZSCAN30 (11745921_a_at) / RFU CMKLR1 (11741424_a_at) / Fold change /veh CMKLR1 (11741424_a_at) / RFU LOC101060620 /// MAPK8IP1 (11723275_at) / Fold change /veh LOC101060620 /// MAPK8IP1 (11723275_at) / RFU SPTSSB (11747773_x_at) / Fold change /veh SPTSSB (11747773_x_at) / RFU PRSS12 (11739890_at) / Fold change /veh PRSS12 (11739890_at) / RFU BIN1 (11741810_x_at) / Fold change /veh BIN1 (11741810_x_at) / RFU WNT11 (11732464_a_at) / Fold change /veh WNT11 (11732464_a_at) / RFU C10orf10 (11716521_a_at) / Fold change /veh C10orf10 (11716521_a_at) / RFU C5orf56 (11738089_at) / Fold change /veh C5orf56 (11738089_at) / RFU CYB561 (11721691_x_at) / Fold change /veh CYB561 (11721691_x_at) / RFU ANKRD19P (11752326_a_at) / Fold change /veh ANKRD19P (11752326_a_at) / RFU OR2T12 /// OR2T33 /// OR2T8 (11738714_s_at) / Fold change /veh OR2T12 /// OR2T33 /// OR2T8 (11738714_s_at) / RFU VCAN (11748164_a_at) / Fold change /veh VCAN (11748164_a_at) / RFU JSRP1 (11732532_at) / Fold change /veh JSRP1 (11732532_at) / RFU KRTAP10-11 (11738290_x_at) / Fold change /veh KRTAP10-11 (11738290_x_at) / RFU MYO3A (11730013_a_at) / Fold change /veh MYO3A (11730013_a_at) / RFU EBF3 (11725865_a_at) / Fold change /veh EBF3 (11725865_a_at) / RFU CAMK2N1 (11719241_x_at) / Fold change /veh CAMK2N1 (11719241_x_at) / RFU C5orf56 (11738088_a_at) / Fold change /veh C5orf56 (11738088_a_at) / RFU OLFML3 (11715873_a_at) / Fold change /veh OLFML3 (11715873_a_at) / RFU LOC100653217 /// NTM (11731650_a_at) / Fold change /veh LOC100653217 /// NTM (11731650_a_at) / RFU MAPK11 (11762145_a_at) / Fold change /veh MAPK11 (11762145_a_at) / RFU FIZ1 (11724087_x_at) / Fold change /veh FIZ1 (11724087_x_at) / RFU OASL (11726364_x_at) / Fold change /veh OASL (11726364_x_at) / RFU SOX15 (11748057_x_at) / Fold change /veh SOX15 (11748057_x_at) / RFU CD79A (11719716_a_at) / Fold change /veh CD79A (11719716_a_at) / RFU HIST1H1D (11736915_at) / Fold change /veh HIST1H1D (11736915_at) / RFU CASKIN2 (11723855_a_at) / Fold change /veh CASKIN2 (11723855_a_at) / RFU LOC730098 (11760151_x_at) / Fold change /veh LOC730098 (11760151_x_at) / RFU OR4N2 (11742367_at) / Fold change /veh OR4N2 (11742367_at) / RFU PRRT2 (11749266_a_at) / Fold change /veh PRRT2 (11749266_a_at) / RFU SNX32 (11753110_a_at) / Fold change /veh SNX32 (11753110_a_at) / RFU CDHR5 (11726645_a_at) / Fold change /veh CDHR5 (11726645_a_at) / RFU RCAN1 (11760418_a_at) / Fold change /veh RCAN1 (11760418_a_at) / RFU FAM167A (11723789_a_at) / Fold change /veh FAM167A (11723789_a_at) / RFU FAM26E (11764081_at) / Fold change /veh FAM26E (11764081_at) / RFU ISYNA1 (11749810_s_at) / Fold change /veh ISYNA1 (11749810_s_at) / RFU ACY1 (11761880_at) / Fold change /veh ACY1 (11761880_at) / RFU 11764098_at / Fold change /veh 11764098_at / RFU SAMD14 (11745864_x_at) / Fold change /veh SAMD14 (11745864_x_at) / RFU NPB (11741838_a_at) / Fold change /veh NPB (11741838_a_at) / RFU TMPRSS6 (11731388_a_at) / Fold change /veh TMPRSS6 (11731388_a_at) / RFU KRTAP10-2 (11738614_at) / Fold change /veh KRTAP10-2 (11738614_at) / RFU ARHGAP8 /// PRR5-ARHGAP8 (11727945_x_at) / Fold change /veh ARHGAP8 /// PRR5-ARHGAP8 (11727945_x_at) / RFU KRTAP5-7 /// NADSYN1 (11734609_at) / Fold change /veh KRTAP5-7 /// NADSYN1 (11734609_at) / RFU RASL12 (11751679_a_at) / Fold change /veh RASL12 (11751679_a_at) / RFU CDKN2B (11736163_a_at) / Fold change /veh CDKN2B (11736163_a_at) / RFU PRF1 (11729649_at) / Fold change /veh PRF1 (11729649_at) / RFU, ZNF638 /// ZNF638-IT1 / Fold change vs veh, ZNF638 /// ZNF638-IT1 / RFU, PANK3 / Fold change vs veh, PANK3 / RFU, SH3YL1 / Fold change vs veh, SH3YL1 / RFU, ZEB2 / Fold change vs veh, ZEB2 / RFU, NRIP1 / Fold change vs veh, NRIP1 / RFU, PTTG1IP / Fold change vs veh, PTTG1IP / RFU, CAPN2 / Fold change vs veh, CAPN2 / RFU, MED14 / Fold change vs veh, MED14 / RFU, SNORA58 / Fold change vs veh, SNORA58 / RFU, C1orf63 / Fold change vs veh, C1orf63 / RFU, LRRFIP1 / Fold change vs veh, LRRFIP1 / RFU, NDUFAF7 / Fold change vs veh, NDUFAF7 / RFU, SLC12A2 / Fold change vs veh, SLC12A2 / RFU, IBTK / Fold change vs veh, IBTK / RFU, ESF1 / Fold change vs veh, ESF1 / Fold change vs veh, TMEM50B / RFU, TAOK1 / Fold change vs veh, TAOK1 / RFU, ACBD3 / Fold change vs veh, ACBD3 / RFU, TMA16 / Fold change vs veh, TMA16 / RFU, RWDD3 / Fold change vs veh, RWDD3 / RFU, BCAT1 / Fold change vs veh, BCAT1 / RFU, EDEM3 / Fold change vs veh, EDEM3 / RFU, TMEM33 / Fold change vs veh, TMEM33 / RFU, WDR75 / Fold change vs veh, WDR75 / RFU, AHCTF1 / Fold change vs veh, AHCTF1 / RFU, TFRC / Fold change vs veh, TFRC / RFU, ZDHHC17 / Fold change vs veh, ZDHHC17 / RFU, NOM1 / Fold change vs veh, NOM1 / RFU, ARL8B / Fold change vs veh, ARL8B / RFU, ZBTB11 / Fold change vs veh, ZBTB11 / RFU, TAMM41 / Fold change vs veh, TAMM41 / RFU, KIAA1704 /// LOC100996395 / Fold change vs veh, KIAA1704 /// LOC100996395 / RFU, ING1 / Fold change vs veh, ING1 / RFU, TRMT61B / Fold change vs veh, TRMT61B / RFU, FUBP3 / Fold change vs veh, FUBP3 / RFU, TP53 / Fold change vs veh, TP53 / RFU, TNKS2 / Fold change vs veh, TNKS2 / RFU, ZFP14 / Fold change vs veh, ZFP14 / RFU, ACTR2 / Fold change vs veh, ACTR2 / RFU, PPP3R1 / Fold change vs veh, PPP3R1 / RFU, PIK3R1 / Fold change vs veh, PIK3R1 / RFU, HNRNPA1 / Fold change vs veh, HNRNPA1 / RFU, RNF170 / Fold change vs veh, RNF170 / RFU, ZNF28 / Fold change vs veh, ZNF28 / RFU, RNGTT / Fold change vs veh, RNGTT / RFU, OGT / Fold change vs veh, OGT / RFU, BRD1 / Fold change vs veh, BRD1 / RFU, MARS / Fold change vs veh, MARS / RFU, ZNF655 / Fold change vs veh, ZNF655 / RFU, FAHD1 / Fold change vs veh, FAHD1 / RFU, BDP1 / Fold change vs veh, BDP1 / RFU, LRRCC1 / Fold change vs veh, LRRCC1 / RFU, ARID1A / Fold change vs veh, ARID1A / RFU, ZNF146 / Fold change vs veh, ZNF146 / RFU, ZNF330 / Fold change vs veh, ZNF330 / RFU, GPN3 / Fold change vs veh, GPN3 / RFU, C9orf123 / Fold change vs veh, C9orf123 / RFU, N4BP2L2 / Fold change vs veh, N4BP2L2 / RFU, ARFIP1 / Fold change vs veh, ARFIP1 / RFU, FAM179B / Fold change vs veh, FAM179B / RFU, BCL10 / Fold change vs veh, BCL10 / RFU, UHRF1BP1L / Fold change vs veh, UHRF1BP1L / RFU, BET1 / Fold change vs veh, BET1 / RFU, CNOT2 / Fold change vs veh, CNOT2 / RFU, ZNF268 / Fold change vs veh, ZNF268 / Fold change vs veh, ZNF507 / RFU, DGCR2 / Fold change vs veh, DGCR2 / RFU, WDSUB1 / Fold change vs veh, WDSUB1 / Fold change vs veh, HSP90B1 /// MIR3652 / RFU, ADSS / Fold change vs veh, ADSS / RFU, GK / Fold change vs veh, GK / RFU, ZNF148 / Fold change vs veh, ZNF148 / RFU, TAF9 / Fold change vs veh, TAF9 / RFU, SLC1A5 / Fold change vs veh, SLC1A5 / RFU, SLMO2 / Fold change vs veh, SLMO2 / RFU, ABCC4 / Fold change vs veh, ABCC4 / RFU, LOC101060439 /// RAP1B / Fold change vs veh, LOC101060439 /// RAP1B / RFU, RFX7 / Fold change vs veh, RFX7 / RFU, GTPBP10 / Fold change vs veh, GTPBP10 / RFU, CNEP1R1 / Fold change vs veh, CNEP1R1 / RFU, BIVM-ERCC5 /// ERCC5 / Fold change vs veh, BIVM-ERCC5 /// ERCC5 / RFU, ILF3 / Fold change vs veh, ILF3 / RFU 11762660_at / Fold change /veh 11762660_at / RFU VCAN (11757783_s_at) / Fold change /veh VCAN (11757783_s_at) / RFU DDX43 (11728927_at) / Fold change /veh DDX43 (11728927_at) / RFU KRT8 (11758188_x_at) / Fold change /veh KRT8 (11758188_x_at) / RFU NKD1 (11759106_at) / Fold change /veh NKD1 (11759106_at) / RFU SRD5A1 (11742802_a_at) / Fold change /veh SRD5A1 (11742802_a_at) / RFU TPSAB1 /// TPSB2 (11721975_s_at) / Fold change /veh TPSAB1 /// TPSB2 (11721975_s_at) / RFU GSTM3 (11746129_a_at) / Fold change /veh GSTM3 (11746129_a_at) / RFU IL23R (11737362_x_at) / Fold change /veh IL23R (11737362_x_at) / RFU TMEM51 (11727254_a_at) / Fold change /veh TMEM51 (11727254_a_at) / RFU PIWIL2 (11732686_x_at) / Fold change /veh PIWIL2 (11732686_x_at) / RFU ORM1 (11744905_x_at) / Fold change /veh ORM1 (11744905_x_at) / RFU CCDC152 (11743942_at) / Fold change /veh CCDC152 (11743942_at) / RFU ECM1 (11717891_a_at) / Fold change /veh ECM1 (11717891_a_at) / RFU IL23R (11748794_a_at) / Fold change /veh IL23R (11748794_a_at) / RFU TNFAIP8L3 (11732012_x_at) / Fold change /veh TNFAIP8L3 (11732012_x_at) / RFU MBOAT4 (11741988_at) / Fold change /veh MBOAT4 (11741988_at) / RFU 11764193_at / Fold change /veh 11764193_at / RFU TMEM53 (11763286_at) / Fold change /veh TMEM53 (11763286_at) / RFU MAGEB2 (11727129_at) / Fold change /veh MAGEB2 (11727129_at) / RFU TMEM200A (11744735_a_at) / Fold change /veh TMEM200A (11744735_a_at) / RFU CCDC152 (11751479_a_at) / Fold change /veh CCDC152 (11751479_a_at) / RFU FAM211A (11726209_a_at) / Fold change /veh FAM211A (11726209_a_at) / RFU RGS16 (11746705_a_at) / Fold change /veh RGS16 (11746705_a_at) / RFU VCAN (11755009_s_at) / Fold change /veh VCAN (11755009_s_at) / RFU RHOB (11743442_s_at) / Fold change /veh RHOB (11743442_s_at) / RFU RGS16 (11720943_a_at) / Fold change /veh RGS16 (11720943_a_at) / RFU RGS16 (11720944_at) / Fold change /veh RGS16 (11720944_at) / RFU, VPS4B / Fold change vs veh, VPS4B / RFU, CREB1 / Fold change vs veh, CREB1 / RFU, DNAJC13 / Fold change vs veh, DNAJC13 / RFU, GNAQ / Fold change vs veh, GNAQ / RFU, CDK5R1 / Fold change vs veh, CDK5R1 / RFU, ZRANB3 / Fold change vs veh, ZRANB3 / RFU, CUL4A / Fold change vs veh, CUL4A / RFU, CCNY / Fold change vs veh, CCNY / RFU, UFL1 / Fold change vs veh, UFL1 / RFU, COG3 / Fold change vs veh, COG3 / RFU, DIAPH2 / Fold change vs veh, DIAPH2 / RFU, SKA2 / Fold change vs veh, SKA2 / RFU, AFF3 / Fold change vs veh, AFF3 / RFU, LMF1 / Fold change vs veh, LMF1 / RFU, IPO11 / Fold change vs veh, IPO11 / RFU, DFFB / Fold change vs veh, DFFB / RFU, FOXP1 / Fold change vs veh, FOXP1 / RFU, CARD8 / Fold change vs veh, CARD8 / RFU, STRN3 / Fold change vs veh, STRN3 / RFU, ADK / Fold change vs veh, ADK / RFU, RASSF2 / Fold change vs veh, RASSF2 / RFU, WIPF1 / Fold change vs veh, WIPF1 / RFU, LARP1B / Fold change vs veh, LARP1B / RFU, RASA1 / Fold change vs veh, RASA1 / RFU, RB1 / Fold change vs veh, RB1 / RFU, PPFIA1 / Fold change vs veh, PPFIA1 / RFU, MAT2A / Fold change vs veh, MAT2A / RFU, CCT5 / Fold change vs veh, CCT5 / RFU, WDR92 / Fold change vs veh, WDR92 / RFU, CUX1 / Fold change vs veh, CUX1 / RFU, TTC7A / Fold change vs veh, TTC7A / RFU, TMEM135 / Fold change vs veh, TMEM135 / RFU, DEPTOR / Fold change vs veh, DEPTOR / RFU, CPM / Fold change vs veh, CPM / RFU, DNAJB6 / Fold change vs veh, DNAJB6 / RFU, CACNA2D3 / Fold change vs veh, CACNA2D3 / RFU, DTX4 / Fold change vs veh, DTX4 / RFU, TFCP2 / Fold change vs veh, TFCP2 / RFU, GMCL1 /// GMCL1P1 / Fold change vs veh, GMCL1 /// GMCL1P1 / RFU, AEBP2 / Fold change vs veh, AEBP2 / RFU, SNHG1 /// SNORD22 /// SNORD25 /// SNORD26 /// SNORD27 /// SNORD28 /// SNORD29 /// SNORD31 / Fold change vs veh, SNHG1 /// SNORD22 /// SNORD25 /// SNORD26 /// SNORD27 /// SNORD28 /// SNORD29 /// SNORD31 / Fold change (Aza/veh), C12orf56 (ProbeSet 11735607_a_at) / Fold change (ACY-1035/veh), C12orf56 (ProbeSet 11735607_a_at) / Fold change (Aza/veh), FGFR1OP (ProbeSet 11751329_s_at) / Fold change (ACY-1035/veh), FGFR1OP (ProbeSet 11751329_s_at) / Fold change (Aza/veh), VPS36 (ProbeSet 11739960_a_at) / Fold change (ACY-1035/veh), VPS36 (ProbeSet 11739960_a_at) / RFU SYPL1 (11715823_x_at) / Fold change /veh SYPL1 (11715823_x_at) / RFU IGFBP7 (11715501_s_at) / Fold change /veh IGFBP7 (11715501_s_at) / RFU REEP3 (11722064_at) / Fold change /veh REEP3 (11722064_at) / RFU IGLL1 (11728026_x_at) / Fold change /veh IGLL1 (11728026_x_at): dose or concentration left out as unconfirmed
Settings: ProbeSet 11722463_a_at; LIST B

Nc1ncn([C@@H]2O[C@H](CO)[C@@H](O)[C@H]2O)c(=O)n1 [azacitidine]
Fold change vs veh, TNKS2: 0.86

From paper PMC5218480 (PLoS ONE, 2017)
